Experimental data taken from US20020035061A1, “COMPOSITIONS AND METHODS FOR TREATING INFECTIONS USING CATIONIC PEPTIDES ALONE OR IN COMBINATION WITH ANTIBIOTICS” (priority 1996, published 2002).

Key:
E. coli = assay type: cell-based
S. epidermidis = assay type: cell-based
S. marcescens = assay type: cell-based
bacterial isolates = experiment: microbe, parasite or virus in culture; assay type: cell-based
[1] = system: MSSA (Smith, ATCC # 19640); experiment: In vivo efficacy, MSSA infection; design: species or system S. aureus; conditions: formulation D, 60 min post-infection, end of eight day observation

ILRWPWWPWRRK [MBI 11B7CN]
MIC, Peptide (E. coli; E. coli ECO005, unmodified parent peptide): 4 µg/mL
MIC (E. coli; E. coli strain ECO002): 8 µg/mL
MIC, Peptide (S. epidermidis; S. epidermidis SE010, unmodified parent peptide): 2 µg/mL
MIC (S. epidermidis; S. epidermidis strain SE003): 2 µg/mL
MIC, Peptide (S. marcescens; S. marcescens SMS003, unmodified parent peptide): >128 µg/mL
MIC (S. marcescens; S. marcescens strain SBSM1): >128 µg/mL
Peptide MIC Alone (bacterial isolates; 2. Ceftriaxone, A. baumannii ABI002): 32 µg/mL
Peptide MIC Alone (bacterial isolates; 2. Ceftriaxone, A. baumannii ABI006): 32 µg/mL
Peptide MIC Alone (bacterial isolates; 2. Ceftriaxone, B. cepacia BC003): >128 µg/mL
Peptide MIC Alone (bacterial isolates; 2. Ceftriaxone, P. aeruginosa PA008): 128 µg/mL
Peptide MIC Alone (bacterial isolates; 2. Ceftriaxone, P. aeruginosa PA024): >128 µg/mL
Peptide MIC Alone (bacterial isolates; 2. Ceftriaxone, S. maltophilia SMA020): 16 µg/mL
Peptide MIC Alone (bacterial isolates; 2. Ceftriaxone, S. maltophilia SMA021): 32 µg/mL
Peptide MIC Alone (bacterial isolates; 2. Ceftriaxone, S. maltophilia SMA023): 128 µg/mL
Ceftriaxone MIC + Peptide (bacterial isolates; A. baumannii ABI002): 8 µg/mL
Peptide MIC + Ceftriaxone (bacterial isolates; A. baumannii ABI002): 8 µg/mL
Ceftriaxone MIC + Peptide (bacterial isolates; A. baumannii ABI006): 16 µg/mL
Ceftriaxone MIC + Peptide (bacterial isolates; B. cepacia BC003): 16 µg/mL
Peptide MIC + Piperacillin (bacterial isolates; E. cloacae 6): 16 µg/mL
Piperacillin MIC + Peptide (bacterial isolates; E. cloacae 6): 16 µg/mL
Peptide MIC Alone (bacterial isolates; E. cloacae 6, Piperacillin section): 32 µg/mL
Peptide MIC + Piperacillin (bacterial isolates; E. cloacae 9): 16 µg/mL
Piperacillin MIC + Peptide (bacterial isolates; E. cloacae 9): 1 µg/mL
Peptide MIC Alone (bacterial isolates; E. cloacae 9, Piperacillin section): 32 µg/mL
Peptide MIC + Piperacillin (bacterial isolates; E. cloacae 10): 16 µg/mL
Piperacillin MIC + Peptide (bacterial isolates; E. cloacae 10): 0.5 µg/mL
Peptide MIC Alone (bacterial isolates; E. cloacae 10, Piperacillin section): 32 µg/mL
Peptide MIC + Piperacillin (bacterial isolates; H. influenzae 1): 0.125 µg/mL
Piperacillin MIC + Peptide (bacterial isolates; H. influenzae 1): 32 µg/mL
Peptide MIC Alone (bacterial isolates; H. influenzae 1, Piperacillin section): >128 µg/mL
Peptide MIC + Piperacillin (bacterial isolates; H. influenzae SB1): 0.125 µg/mL
Piperacillin MIC + Peptide (bacterial isolates; H. influenzae SB1): 0.25 µg/mL
Peptide MIC Alone (bacterial isolates; H. influenzae SB1, Piperacillin section): >128 µg/mL
Peptide MIC + Piperacillin (bacterial isolates; P. aeruginosa 23): 64 µg/mL
Piperacillin MIC + Peptide (bacterial isolates; P. aeruginosa 23): 2 µg/mL
Peptide MIC Alone (bacterial isolates; P. aeruginosa 23, Piperacillin section): 128 µg/mL
Ceftriaxone MIC + Peptide (bacterial isolates; P. aeruginosa PA008): 16 µg/mL
Peptide MIC + Ceftriaxone (bacterial isolates; P. aeruginosa PA008): 16 µg/mL
Ceftriaxone MIC + Peptide (bacterial isolates; P. aeruginosa PA024): 32 µg/mL
Peptide MIC + Ceftriaxone (bacterial isolates; P. aeruginosa PA024): 0.125 µg/mL
Peptide MIC + Piperacillin (bacterial isolates; S. aureus 19 MRSA): 1 µg/mL
Piperacillin MIC + Peptide (bacterial isolates; S. aureus 19 MRSA): 32 µg/mL
Peptide MIC Alone (bacterial isolates; S. aureus 19 MRSA, Piperacillin section): 4 µg/mL
Peptide MIC + Piperacillin (bacterial isolates; S. maltophilia 5): 64 µg/mL
Piperacillin MIC + Peptide (bacterial isolates; S. maltophilia 5): 64 µg/mL
Peptide MIC Alone (bacterial isolates; S. maltophilia 5, Piperacillin section): >128 µg/mL
Peptide MIC + Piperacillin (bacterial isolates; S. maltophilia 9): 64 µg/mL
Piperacillin MIC + Peptide (bacterial isolates; S. maltophilia 9): 64 µg/mL
Peptide MIC Alone (bacterial isolates; S. maltophilia 9, Piperacillin section): >128 µg/mL
Peptide MIC + Piperacillin (bacterial isolates; S. maltophilia 11): 32 µg/mL
Piperacillin MIC + Peptide (bacterial isolates; S. maltophilia 11): 64 µg/mL
Peptide MIC Alone (bacterial isolates; S. maltophilia 11, Piperacillin section): >128 µg/mL
Ceftriaxone MIC + Peptide (bacterial isolates; S. maltophilia SMA020): 64 µg/mL
Peptide MIC + Ceftriaxone (bacterial isolates; S. maltophilia SMA020): 8 µg/mL
Ceftriaxone MIC + Peptide (bacterial isolates; S. maltophilia SMA021): 64 µg/mL
Peptide MIC + Ceftriaxone (bacterial isolates; S. maltophilia SMA021): 8 µg/mL
Ceftriaxone MIC + Peptide (bacterial isolates; S. maltophilia SMA023): 32 µg/mL
Peptide MIC + Ceftriaxone (bacterial isolates; S. maltophilia SMA023): 16 µg/mL
Peptide MIC + Piperacillin (bacterial isolates; S. marcescens 1): 4 µg/mL
Piperacillin MIC + Peptide (bacterial isolates; S. marcescens 1): 8 µg/mL
Peptide MIC Alone (bacterial isolates; S. marcescens 1, Piperacillin section): >128 µg/mL
FIC (bacterial isolates; peptide + Ceftriaxone, A. baumannii ABI002): 0.50
FIC (bacterial isolates; peptide + Ceftriaxone, A. baumannii ABI006): 0.25
FIC (bacterial isolates; peptide + Ceftriaxone, B. cepacia BC003): 0.52
FIC (bacterial isolates; peptide + Ceftriaxone, P. aeruginosa PA008): 0.25
FIC (bacterial isolates; peptide + Ceftriaxone, P. aeruginosa PA024): 0.50
FIC (bacterial isolates; peptide + Ceftriaxone, S. maltophilia SMA020): 0.75
FIC (bacterial isolates; peptide + Ceftriaxone, S. maltophilia SMA021): 0.50
FIC (bacterial isolates; peptide + Ceftriaxone, S. maltophilia SMA023): 0.38
FIC (bacterial isolates; peptide + Piperacillin, E. cloacae 6): 0.56
FIC (bacterial isolates; peptide + Piperacillin, E. cloacae 9): 0.50
FIC (bacterial isolates; peptide + Piperacillin, E. cloacae 10): 0.50
FIC (bacterial isolates; peptide + Piperacillin, H. influenzae 1): 0.50
FIC (bacterial isolates; peptide + Piperacillin, H. influenzae SB1): 0.50
FIC (bacterial isolates; peptide + Piperacillin, P. aeruginosa 23): 0.56
FIC (bacterial isolates; peptide + Piperacillin, S. aureus 19 MRSA): 0.50
FIC (bacterial isolates; peptide + Piperacillin, S. maltophilia 5): 0.50
FIC (bacterial isolates; peptide + Piperacillin, S. maltophilia 9): 0.50
FIC (bacterial isolates; peptide + Piperacillin, S. maltophilia 11): 0.38
FIC (bacterial isolates; peptide + Piperacillin, S. marcescens 1): 0.27
% Survival ([1]; 12 mg/kg ip): 0%
% Survival ([1]; 18 mg/kg ip): 10%
% Survival ([1]; 24 mg/kg ip): 60%
